{"source": "paper PMC8800111", "about": "(The Journal of Biological Chemistry, 2021)", "assay_type_in_all_cases": "cell-based", "key": {"[1]": {"molecular_target": "proteins of U3A human fibrosarcoma cells (4462 proteins detected) (Homo sapiens, UniProt O76003)", "settings": "protein GLRX3; U3A cells"}, "[2]": {"molecular_target": "proteins of U3A human fibrosarcoma cells (4462 proteins detected) (Homo sapiens, UniProt O94829)", "settings": "protein IPO13; U3A cells"}, "[3]": {"molecular_target": "proteins of U3A human fibrosarcoma cells (4462 proteins detected) (Homo sapiens, UniProt O94925)", "settings": "protein GLS; U3A, 10 μM, 2 h"}, "[4]": {"molecular_target": "proteins of U3A human fibrosarcoma cells (4462 proteins detected) (Homo sapiens, UniProt O95487)", "settings": "protein SEC24B, U3A cells"}, "[5]": {"molecular_target": "proteins of U3A human fibrosarcoma cells (4462 proteins detected) (Homo sapiens, UniProt O95671)", "settings": "protein ASMTL; U3A, 10 μM, 2 h"}, "[6]": {"molecular_target": "proteins of U3A human fibrosarcoma cells (4462 proteins detected) (Homo sapiens, UniProt P00519)", "settings": "protein ABL1; U3A cells"}, "[7]": {"molecular_target": "proteins of U3A human fibrosarcoma cells (4462 proteins detected) (Homo sapiens, UniProt P08582)", "settings": "protein MFI2; U3A cells"}, "[8]": {"molecular_target": "proteins of U3A human fibrosarcoma cells (4462 proteins detected) (Homo sapiens, UniProt P11182)", "settings": "protein DBT; U3A cells"}, "[9]": {"molecular_target": "proteins of U3A human fibrosarcoma cells (4462 proteins detected) (Homo sapiens, UniProt P11388)", "sequence (P11388 whole entry)": "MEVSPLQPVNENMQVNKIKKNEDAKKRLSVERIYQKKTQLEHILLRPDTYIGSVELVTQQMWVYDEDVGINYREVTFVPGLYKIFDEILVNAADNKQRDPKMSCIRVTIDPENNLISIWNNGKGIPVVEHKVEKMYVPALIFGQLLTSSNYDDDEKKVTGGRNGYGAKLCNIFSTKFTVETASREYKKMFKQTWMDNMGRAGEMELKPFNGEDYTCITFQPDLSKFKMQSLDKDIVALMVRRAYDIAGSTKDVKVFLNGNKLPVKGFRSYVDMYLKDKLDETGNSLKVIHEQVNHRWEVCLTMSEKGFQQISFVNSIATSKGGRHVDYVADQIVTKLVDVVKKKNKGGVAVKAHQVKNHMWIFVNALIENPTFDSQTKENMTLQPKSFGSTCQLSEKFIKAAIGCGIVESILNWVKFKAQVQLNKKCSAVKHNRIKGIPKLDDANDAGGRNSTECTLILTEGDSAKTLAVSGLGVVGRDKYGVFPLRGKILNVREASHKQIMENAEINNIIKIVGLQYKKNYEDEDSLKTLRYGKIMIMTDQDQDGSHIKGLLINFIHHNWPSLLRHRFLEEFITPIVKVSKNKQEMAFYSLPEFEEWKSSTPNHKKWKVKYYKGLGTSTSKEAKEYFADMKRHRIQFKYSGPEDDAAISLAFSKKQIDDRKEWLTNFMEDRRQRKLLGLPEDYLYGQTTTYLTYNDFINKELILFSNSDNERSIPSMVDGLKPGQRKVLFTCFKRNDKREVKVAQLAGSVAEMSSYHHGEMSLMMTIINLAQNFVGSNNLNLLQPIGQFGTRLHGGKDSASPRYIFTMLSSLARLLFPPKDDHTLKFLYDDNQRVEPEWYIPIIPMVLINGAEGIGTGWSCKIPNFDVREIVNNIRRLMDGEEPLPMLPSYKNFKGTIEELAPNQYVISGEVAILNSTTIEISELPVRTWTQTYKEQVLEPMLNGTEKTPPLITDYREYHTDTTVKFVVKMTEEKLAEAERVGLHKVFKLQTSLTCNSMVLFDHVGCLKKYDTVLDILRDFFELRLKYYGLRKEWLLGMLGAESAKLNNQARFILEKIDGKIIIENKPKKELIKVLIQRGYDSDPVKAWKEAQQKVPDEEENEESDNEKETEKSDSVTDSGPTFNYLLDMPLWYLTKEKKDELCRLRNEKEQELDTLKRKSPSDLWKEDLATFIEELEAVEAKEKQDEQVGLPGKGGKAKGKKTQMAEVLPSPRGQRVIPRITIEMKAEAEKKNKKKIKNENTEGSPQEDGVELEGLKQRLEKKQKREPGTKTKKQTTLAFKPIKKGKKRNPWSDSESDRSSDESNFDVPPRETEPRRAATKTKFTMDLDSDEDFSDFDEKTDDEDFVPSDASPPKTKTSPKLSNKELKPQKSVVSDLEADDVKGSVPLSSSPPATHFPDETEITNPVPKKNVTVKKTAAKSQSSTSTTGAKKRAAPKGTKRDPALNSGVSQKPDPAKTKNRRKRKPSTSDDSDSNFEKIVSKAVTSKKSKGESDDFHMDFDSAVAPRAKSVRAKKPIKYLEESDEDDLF", "settings": "protein TOP2A; U3A cells"}, "[10]": {"molecular_target": "proteins of U3A human fibrosarcoma cells (4462 proteins detected) (Homo sapiens, UniProt P17987)", "settings": "protein TCP1; U3A cells"}, "[11]": {"molecular_target": "proteins of U3A human fibrosarcoma cells (4462 proteins detected) (Homo sapiens, UniProt P30050)", "settings": "protein RPL12; soluble abundance after heat, U3A cells"}, "[12]": {"molecular_target": "proteins of U3A human fibrosarcoma cells (4462 proteins detected) (Homo sapiens, UniProt P30154)", "sequence (P30154 whole entry)": "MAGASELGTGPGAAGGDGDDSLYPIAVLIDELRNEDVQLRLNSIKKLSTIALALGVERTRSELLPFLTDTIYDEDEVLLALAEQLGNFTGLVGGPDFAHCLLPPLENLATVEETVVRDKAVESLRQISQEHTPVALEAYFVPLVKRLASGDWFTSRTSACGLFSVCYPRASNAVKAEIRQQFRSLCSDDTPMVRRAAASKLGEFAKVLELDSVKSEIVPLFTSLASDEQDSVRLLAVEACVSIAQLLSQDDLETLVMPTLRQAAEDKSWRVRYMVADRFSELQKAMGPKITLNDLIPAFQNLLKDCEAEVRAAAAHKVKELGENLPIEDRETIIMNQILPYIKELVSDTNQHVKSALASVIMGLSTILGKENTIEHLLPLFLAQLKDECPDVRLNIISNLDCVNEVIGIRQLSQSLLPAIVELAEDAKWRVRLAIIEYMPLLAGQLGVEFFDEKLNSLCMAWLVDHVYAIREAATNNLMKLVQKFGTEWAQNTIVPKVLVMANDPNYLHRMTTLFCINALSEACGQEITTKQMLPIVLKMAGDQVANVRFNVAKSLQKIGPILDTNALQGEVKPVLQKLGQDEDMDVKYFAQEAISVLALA", "settings": "protein PPP2R1B; soluble abundance after heat, U3A cells"}, "[13]": {"molecular_target": "proteins of U3A human fibrosarcoma cells (4462 proteins detected) (Homo sapiens, UniProt P35244)", "settings": "protein RPA3; soluble abundance after heat, U3A cells"}, "[14]": {"molecular_target": "proteins of U3A human fibrosarcoma cells (4462 proteins detected) (Homo sapiens, UniProt P51532)", "settings": "protein SMARCA4; U3A cells"}, "[15]": {"molecular_target": "proteins of U3A human fibrosarcoma cells (4462 proteins detected) (Homo sapiens, UniProt P61081)", "settings": "protein UBE2M; U3A cells"}, "[16]": {"molecular_target": "proteins of U3A human fibrosarcoma cells (4462 proteins detected) (Homo sapiens, UniProt P82933)", "settings": "protein MRPS9; soluble abundance after heat, U3A cells"}, "[17]": {"molecular_target": "proteins of U3A human fibrosarcoma cells (4462 proteins detected) (Homo sapiens, UniProt Q06323)", "settings": "protein PSME1; soluble abundance after heat, U3A cells"}, "[18]": {"molecular_target": "proteins of U3A human fibrosarcoma cells (4462 proteins detected) (Homo sapiens, UniProt Q13303)", "settings": "protein KCNAB2, U3A cells"}, "[19]": {"molecular_target": "proteins of U3A human fibrosarcoma cells (4462 proteins detected) (Homo sapiens, UniProt Q5T4S7)", "settings": "protein UBR4; soluble abundance after heat, U3A cells"}, "[20]": {"molecular_target": "proteins of U3A human fibrosarcoma cells (4462 proteins detected) (Homo sapiens, UniProt Q8IZL8)", "sequence (Q8IZL8 whole entry)": "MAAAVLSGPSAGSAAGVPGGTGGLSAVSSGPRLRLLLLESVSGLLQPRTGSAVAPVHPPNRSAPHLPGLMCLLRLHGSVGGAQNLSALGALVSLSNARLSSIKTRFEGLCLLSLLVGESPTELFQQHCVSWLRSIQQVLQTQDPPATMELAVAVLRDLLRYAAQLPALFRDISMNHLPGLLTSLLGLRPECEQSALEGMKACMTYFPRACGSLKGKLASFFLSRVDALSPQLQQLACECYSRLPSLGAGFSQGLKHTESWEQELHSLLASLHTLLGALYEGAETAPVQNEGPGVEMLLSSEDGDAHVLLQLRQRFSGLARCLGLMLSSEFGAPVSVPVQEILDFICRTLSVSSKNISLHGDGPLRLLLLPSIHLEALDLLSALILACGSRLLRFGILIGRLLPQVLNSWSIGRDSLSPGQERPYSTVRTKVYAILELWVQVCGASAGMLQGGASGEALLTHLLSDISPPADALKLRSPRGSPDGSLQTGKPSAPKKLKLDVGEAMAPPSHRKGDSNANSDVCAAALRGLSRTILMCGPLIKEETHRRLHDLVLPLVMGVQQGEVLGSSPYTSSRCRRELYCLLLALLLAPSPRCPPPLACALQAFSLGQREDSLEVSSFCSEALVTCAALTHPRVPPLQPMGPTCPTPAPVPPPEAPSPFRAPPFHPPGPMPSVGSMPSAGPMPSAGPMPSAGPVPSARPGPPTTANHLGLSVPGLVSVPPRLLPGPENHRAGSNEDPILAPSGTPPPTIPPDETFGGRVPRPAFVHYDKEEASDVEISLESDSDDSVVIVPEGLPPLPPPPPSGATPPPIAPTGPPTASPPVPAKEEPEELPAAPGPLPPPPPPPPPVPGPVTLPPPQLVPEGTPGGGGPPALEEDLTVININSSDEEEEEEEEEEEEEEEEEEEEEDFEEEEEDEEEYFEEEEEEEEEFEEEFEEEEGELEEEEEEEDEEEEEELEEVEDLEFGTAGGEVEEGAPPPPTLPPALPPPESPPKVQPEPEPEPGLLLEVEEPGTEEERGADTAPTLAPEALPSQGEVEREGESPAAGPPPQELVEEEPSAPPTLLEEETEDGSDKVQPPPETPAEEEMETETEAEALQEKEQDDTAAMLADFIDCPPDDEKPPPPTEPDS", "settings": "protein PELP1; U3A cells"}, "[21]": {"molecular_target": "proteins of U3A human fibrosarcoma cells (4462 proteins detected) (Homo sapiens, UniProt Q92922)", "settings": "protein SMARCC1; soluble abundance after heat, U3A cells"}, "[22]": {"molecular_target": "proteins of U3A human fibrosarcoma cells (4462 proteins detected) (Homo sapiens, UniProt Q93008)", "settings": "protein USP9X; soluble abundance after heat, U3A cells"}, "[23]": {"molecular_target": "proteins of U3A human fibrosarcoma cells (4462 proteins detected) (Homo sapiens, UniProt Q9H5Q4)", "settings": "protein TFB2M; U3A cells"}, "[24]": {"molecular_target": "proteins of U3A human fibrosarcoma cells (4462 proteins detected) (Homo sapiens, UniProt Q9NRL2)", "sequence (Q9NRL2 whole entry)": "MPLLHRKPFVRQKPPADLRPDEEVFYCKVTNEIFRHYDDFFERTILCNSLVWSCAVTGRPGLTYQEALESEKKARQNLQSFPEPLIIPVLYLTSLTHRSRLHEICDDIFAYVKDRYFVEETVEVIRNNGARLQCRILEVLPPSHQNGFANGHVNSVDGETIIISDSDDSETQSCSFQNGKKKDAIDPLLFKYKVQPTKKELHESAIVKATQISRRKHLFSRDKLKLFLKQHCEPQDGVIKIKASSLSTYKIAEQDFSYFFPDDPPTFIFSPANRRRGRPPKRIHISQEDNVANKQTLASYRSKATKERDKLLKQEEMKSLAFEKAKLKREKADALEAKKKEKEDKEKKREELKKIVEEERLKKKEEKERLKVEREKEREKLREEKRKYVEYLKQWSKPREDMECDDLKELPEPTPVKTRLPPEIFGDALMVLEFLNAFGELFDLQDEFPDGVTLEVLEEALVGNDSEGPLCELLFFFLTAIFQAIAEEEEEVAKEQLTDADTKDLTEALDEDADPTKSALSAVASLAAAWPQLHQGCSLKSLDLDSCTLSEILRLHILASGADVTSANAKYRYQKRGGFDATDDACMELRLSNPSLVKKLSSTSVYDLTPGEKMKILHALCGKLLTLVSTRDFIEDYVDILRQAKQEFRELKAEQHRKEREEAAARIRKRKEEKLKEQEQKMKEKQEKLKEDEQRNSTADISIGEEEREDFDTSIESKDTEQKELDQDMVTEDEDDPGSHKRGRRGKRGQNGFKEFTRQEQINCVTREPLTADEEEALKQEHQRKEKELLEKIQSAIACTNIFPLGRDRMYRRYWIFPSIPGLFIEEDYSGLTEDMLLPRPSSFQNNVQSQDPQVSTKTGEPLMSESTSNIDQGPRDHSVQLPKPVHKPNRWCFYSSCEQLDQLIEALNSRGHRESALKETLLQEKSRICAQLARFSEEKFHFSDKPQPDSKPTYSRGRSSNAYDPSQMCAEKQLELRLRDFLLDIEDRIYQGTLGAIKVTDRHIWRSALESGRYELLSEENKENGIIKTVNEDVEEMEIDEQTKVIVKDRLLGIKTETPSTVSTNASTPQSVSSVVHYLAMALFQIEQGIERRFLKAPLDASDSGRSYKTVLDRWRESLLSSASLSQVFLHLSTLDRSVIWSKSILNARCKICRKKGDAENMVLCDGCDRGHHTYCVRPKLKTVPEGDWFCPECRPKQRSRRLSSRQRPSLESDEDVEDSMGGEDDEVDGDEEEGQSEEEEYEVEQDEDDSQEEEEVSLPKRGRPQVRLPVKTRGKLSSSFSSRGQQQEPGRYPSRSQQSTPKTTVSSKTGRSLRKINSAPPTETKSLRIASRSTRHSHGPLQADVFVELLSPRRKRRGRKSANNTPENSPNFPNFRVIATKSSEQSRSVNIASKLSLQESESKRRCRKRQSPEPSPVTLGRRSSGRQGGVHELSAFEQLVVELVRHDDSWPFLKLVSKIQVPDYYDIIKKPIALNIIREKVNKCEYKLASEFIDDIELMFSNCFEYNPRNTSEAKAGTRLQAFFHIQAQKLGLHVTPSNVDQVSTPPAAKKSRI", "settings": "protein BAZ1A; U3A cells"}, "[25]": {"molecular_target": "proteins of U3A human fibrosarcoma cells (4462 proteins detected) (Homo sapiens, UniProt Q9NTW7)", "settings": "protein ZFP64, U3A cells"}, "[26]": {"molecular_target": "proteins of U3A human fibrosarcoma cells (4462 proteins detected) (Homo sapiens, UniProt Q9NVH2)", "settings": "protein INTS7; soluble abundance after heat, U3A cells"}, "[27]": {"molecular_target": "proteins of U3A human fibrosarcoma cells (4462 proteins detected) (Homo sapiens, UniProt Q9UJF2)", "settings": "protein RASAL2, U3A cells"}, "[28]": {"molecular_target": "proteins of U3A human fibrosarcoma cells (4462 proteins detected) (Homo sapiens, UniProt Q9UK41)", "sequence (Q9UK41 whole entry)": "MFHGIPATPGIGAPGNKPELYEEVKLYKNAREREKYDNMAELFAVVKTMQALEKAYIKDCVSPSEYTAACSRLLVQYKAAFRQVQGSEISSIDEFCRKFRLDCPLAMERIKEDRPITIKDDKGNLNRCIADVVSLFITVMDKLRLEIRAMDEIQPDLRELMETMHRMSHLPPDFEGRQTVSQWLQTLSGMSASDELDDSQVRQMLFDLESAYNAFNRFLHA", "settings": "protein VPS28; U3A cells"}, "[29]": {"molecular_target": "proteins of U3A human fibrosarcoma cells (4462 proteins detected) (Homo sapiens, UniProt Q9UPN9)", "settings": "protein TRIM33; U3A cells"}, "[30]": {"molecular_target": "proteins of U3A human fibrosarcoma cells (4462 proteins detected) (Homo sapiens, UniProt Q9Y2H0)", "settings": "protein DLGAP4, U3A cells"}}}
{"smiles": "CCc1nc(N)nc(N)c1-c1ccc(Cl)cc1", "note": "[pyrimethamine]", "values": [{"measurement": "Log2 (PYR/DMSO)", "setting": "[1]", "value": 0.16}, {"measurement": "Log2 (PYR/DMSO)", "setting": "[2]", "value": 0.19}, {"measurement": "Log2 (PYR/DMSO), GLS", "setting": "[3]", "value": 0.24}, {"measurement": "Log2 (PYR/DMSO)", "setting": "[4]", "value": -0.04}, {"measurement": "Log2 (PYR/DMSO), ASMTL", "setting": "[5]", "value": 0.27}, {"measurement": "Log2 (PYR/DMSO)", "setting": "[6]", "value": 0.17}, {"measurement": "Log2 (PYR/DMSO)", "setting": "[7]", "value": 0.18}, {"measurement": "Log2 (PYR/DMSO)", "setting": "[8]", "value": 0.16}, {"measurement": "Log2 (PYR/DMSO)", "setting": "[9]", "value": 0.18}, {"measurement": "Log2 (PYR/DMSO)", "setting": "[10]", "value": 0.21}, {"measurement": "Log2 (PYR/DMSO)", "setting": "[11]", "value": 0.14}, {"measurement": "Log2 (PYR/DMSO)", "setting": "[12]", "value": 0.15}, {"measurement": "Log2 (PYR/DMSO)", "setting": "[13]", "value": 0.13}, {"measurement": "Log2 (PYR/DMSO)", "setting": "[14]", "value": 0.16}, {"measurement": "Log2 (PYR/DMSO)", "setting": "[15]", "value": 0.19}, {"measurement": "Log2 (PYR/DMSO)", "setting": "[16]", "value": 0.15}, {"measurement": "Log2 (PYR/DMSO)", "setting": "[17]", "value": 0.14}, {"measurement": "Log2 (PYR/DMSO)", "setting": "[18]", "value": -0.03}, {"measurement": "Log2 (PYR/DMSO)", "setting": "[19]", "value": 0.14}, {"measurement": "Log2 (PYR/DMSO)", "setting": "[20]", "value": 0.16}, {"measurement": "Log2 (PYR/DMSO)", "setting": "[21]", "value": 0.15}, {"measurement": "Log2 (PYR/DMSO)", "setting": "[22]", "value": 0.14}, {"measurement": "Log2 (PYR/DMSO)", "setting": "[23]", "value": 0.18}, {"measurement": "Log2 (PYR/DMSO)", "setting": "[24]", "value": 0.19}, {"measurement": "Log2 (PYR/DMSO)", "setting": "[25]", "value": -0.04}, {"measurement": "Log2 (PYR/DMSO)", "setting": "[26]", "value": 0.15}, {"measurement": "Log2 (PYR/DMSO)", "setting": "[27]", "value": -0.05}, {"measurement": "Log2 (PYR/DMSO)", "setting": "[28]", "value": 0.21}, {"measurement": "Log2 (PYR/DMSO)", "setting": "[29]", "value": 0.16}, {"measurement": "Log2 (PYR/DMSO)", "setting": "[30]", "value": -0.04}]}
